Results taken from US20110230467A1, “4,6-DIAMINONICOTINAMIDE COMPOUND” (Astellas Pharma Inc., priority 2008, published 2011).

biological target: T1, human JAK3 kinase domain (Homo sapiens, UniProt P52333); test: JAK3 Inhibition Test (Test Example 1); assay type: biochemical; conditions: purified human JAK3 kinase domain; 20 μM ATP in substrate solution; absorbance at 450 nm; read-out: IC50 (JAK3 inhibitory activity)
T1 construct: attached to the N-terminal of the 796-1124 (C-terminal) fragment of the human JAK3 protein; His-tag (N); purchased Carna Biosciences, Inc. (Kobe, Japan); host or cells: baculovirus expression system
T1 sequence (P52333 796-1124): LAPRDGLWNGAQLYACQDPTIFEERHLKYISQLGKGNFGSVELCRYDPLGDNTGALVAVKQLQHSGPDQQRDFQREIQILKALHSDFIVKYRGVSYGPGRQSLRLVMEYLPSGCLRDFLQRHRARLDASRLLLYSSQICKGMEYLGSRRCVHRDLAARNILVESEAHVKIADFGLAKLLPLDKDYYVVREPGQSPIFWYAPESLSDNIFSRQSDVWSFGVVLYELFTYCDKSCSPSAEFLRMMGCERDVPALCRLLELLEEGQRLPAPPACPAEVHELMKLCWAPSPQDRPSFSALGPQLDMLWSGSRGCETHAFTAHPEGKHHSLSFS
Excerpt: (1) Preparation of Human JAK3
Purified human JAK3 kinase domain was purchased from Carna Biosciences, Inc. (Kobe, Japan). This was afforded as described below. His-tag (41 kDa) was attached to the N-terminal of the 796-1124 (C-terminal) fragment of the human JAK3 protein (accession number #NM_000215), expressed using a baculovirus expression system, and then purified using Ni-NTA affinity column chromatography.
(2) Measurement of JAK3 Activity
As substrates, Biotin-Lyn-Substrate-2 (Biotin-XEQED EPEGF YFEWL EPE), X=ε-Acp (Peptide Institute, Inc., Osaka, Japan) and ATP were used. As an assay buffer, 15 mM Tris-HCl, pH 7.5, containing 0.01% Tween 20, and 2 mM DTT (dithiothreitol) was used. Normally, 20 μL of a substrate solution (an assay buffer containing 627 nM Biotin-Lyn-Substrate-2, 20 μM ATP, and 25 mM MgCl2), an assay buffer containing 10 μL of a compound to be tested, and 20 μL of an enzyme solution were added to a microplate, and stirred sufficiently.
After incubation at room temperature for one hour, the plate was washed with a cleaning buffer (50 mM Tris-HCl pH 7.5, 150 mM NaCl, 0.02% Tween 20), and a blocking buffer (a cleaning buffer containing 0.1% Bovine Serum Albumin) was added to the plate. After incubation at room temperature for 30 minutes, the blocking buffer was removed, and an HRP-PY-20 solution (afforded by diluting the HRP-PY-20 solution with the blocking buffer 500 times) was added. After incubation at room temperature for 30 minutes, the plate was washed four times, and a TMB substrate solution (Sigma) was added to the plate. After incubation at room temperature for 4 minutes, 1 M sulfuric acid was added to stop the reaction. Enzyme activity was measured as an absorbance at 450 nm. The JAK3 inhibitory activity of the test compound was calculated assuming that the concentration of the test compound inhibiting JAK3 activity by 50% is an IC50 value.

Row | IC50 [nM] | Compound
1 | 0.21 | N#Cc1ccc(N2CC[C@@H](Nc3cc(Nc4cnccn4)ncc3C(N)=O)[C@@H](F)C2)nc1 [Example 5-7]
2 | 0.8 | Cc1nccc(Nc2cc(NC3CCN(c4ccc(C#N)cc4)CC3)c(C(N)=O)cn2)n1 [Example 5-8]
3 | 0.36 | Cc1nccc(Nc2cc(NC3CCN(c4ccc(C#N)cn4)CC3)c(C(N)=O)cn2)n1 [Example 5-9]
4 | 0.29 | N#Cc1ccc(N2CC[C@@H](Nc3cc(Nc4ccncn4)ncc3C(N)=O)[C@@H](F)C2)nc1 [Example 5-10]
5 | 0.34 | N#Cc1ccc(N2CC[C@@H](Nc3cc(Nc4cnccn4)ncc3C(N)=O)[C@@H](F)C2)nn1 [Example 5-11]
6 | 1 | N#Cc1cnc(N2CC[C@@H](Nc3cc(Nc4ccncn4)ncc3C(N)=O)[C@@H](F)C2)cn1 [Example 5-15]
7 | 1.1 | N#Cc1ccc(N2CCC(Nc3cc(Nc4ccncn4)ncc3C(N)=O)CC2)nn1 [Example 5-18]
8 | 2 | Cc1cnc(Nc2cc(NC3CCN(c4ccc(C#N)nn4)CC3)c(C(N)=O)cn2)cn1 [Example 5-22]
9 | 0.24 | N#Cc1ccc(N2CCC(Nc3cc(Nc4ccncn4)ncc3C(N)=O)CC2)cn1 [Example 5-25]
10 | 0.39 | Cc1nccc(Nc2cc(N[C@@H]3CCN(c4ccc(C#N)cn4)C[C@@H]3F)c(C(N)=O)cn2)n1 [Example 5-26]
11 | 0.86 | N#Cc1ccc(N2CCC(Nc3cc(Nc4ccc(N5CCCC5=O)cn4)ncc3C(N)=O)CC2)nc1 [Example 5-46]
12 | 0.74 | N#Cc1ccc(N2CC[C@@H](Nc3cc(Nc4ccc(N5CCCCC5=O)cn4)ncc3C(N)=O)[C@@H](F)C2)nc1 [Example 5-55]
13 | 0.9 | N#Cc1ccc(N2CCC(Nc3cc(Nc4ccc(N5C(=O)[C@H]6CC[C@@H]5C6)cn4)ncc3C(N)=O)CC2)nc1 [Example 5-67]
14 | 0.14 | N#Cc1ccc(N2CC[C@@H](Nc3cc(Nc4ccccn4)ncc3C(N)=O)[C@@H](F)C2)nc1 [Example 5-72]
15 | 0.24 | COCc1ccc(Nc2cc(N[C@@H]3CCN(c4ccc(C#N)cn4)C[C@@H]3F)c(C(N)=O)cn2)nc1 [Example 5-73]
16 | 0.74 | NC(=O)c1cnc(Nc2ccc(C(=O)N3CCCC3)cn2)cc1NCc1c(F)cccc1F [Example 8-6]
17 | 0.8 | COC1CCN(C(=O)c2ccc(Nc3cc(NCc4c(F)cccc4F)c(C(N)=O)cn3)nc2)CC1 [Example 8-7]
18 | 1 | CN1CCN(C(=O)c2ccc(Nc3cc(NCc4c(F)cccc4F)c(C(N)=O)cn3)nc2)CC1 [Example 8-8]
19 | 1.6 | CN1CCCN(C(=O)c2ccc(Nc3cc(NCc4c(F)cccc4F)c(C(N)=O)cn3)nc2)CC1 [Example 8-9]
20 | 1 | NC(=O)c1cnc(Nc2cnccn2)cc1NCc1c(F)ccc(F)c1F [Example 12-50]
21 | 0.69 | NC(=O)c1cnc(Nc2ccc(N3CCCCC3=O)cn2)cc1NCc1c(F)ccc(F)c1F [Example 12-54]
22 | 0.58 | CN1CCN(c2ccc(Nc3cc(NCc4c(F)ccc(F)c4F)c(C(N)=O)cn3)nc2)C(=O)C1 [Example 12-73]
23 | 0.74 | CN1CCC(=O)N(c2ccc(Nc3cc(NCc4c(F)ccc(F)c4F)c(C(N)=O)cn3)nc2)CC1 [Example 12-74]
24 | 0.43 | NC(=O)c1cnc(Nc2ccc(N3CCOCC3=O)cn2)cc1NCc1c(F)ccc(F)c1F [Example 12-76]
25 | 0.69 | NC(=O)c1cnc(Nc2ccc(N3C(=O)[C@@H]4CC[C@H]3C4)cn2)cc1NCc1c(F)ccc(F)c1F [Example 12-78]
26 | 0.79 | NC(=O)c1cnc(Nc2ccc(N3CCCCCC3=O)cn2)cc1NCc1c(F)ccc(F)c1F [Example 12-79]
27 | 0.69 | NC(=O)c1cnc(Nc2ccc(N3C(=O)[C@H]4CC[C@@H]3C4)cn2)cc1NCc1c(F)ccc(F)c1F [Example 12-80]
28 | 0.56 | NC(=O)c1cnc(Nc2ccc(N3CCOCCC3=O)cn2)cc1NCc1c(F)ccc(F)c1F [Example 12-81]
29 | 0.44 | CN1C(=O)N(c2ccc(Nc3cc(NCc4c(F)ccc(F)c4F)c(C(N)=O)cn3)nc2)C(=O)C1(C)C [Example 12-91]
30 | 0.25 | CN1CCC(=O)N(c2ccc(Nc3cc(NCc4c(F)cccc4F)c(C(N)=O)cn3)nc2)CC1 [Example 12-97]
